Data on two compounds can be found in paper PMC7323874, “Vancomycin Resistance Is Overcome by Conjugation of Polycationic Peptides” (Angewandte Chemie (International Ed. in English), 2020).

In test [1] the test system is Staphylococcus aureus USA300 LAC. Briefly: microbe, parasite or virus in culture. The format is cell-based. The following applies: Staphylococcus aureus, MRSA / USA300, 24 h. As for the experimental part: (§1) Antimicrobial testing – Microdilution
Antimicrobial testing was performed according to CLSI and EUCAST guidelines in microdilution.8-10 Therefore, all tested substances as well as controls were dissolved in water in different concentrations and serially diluted in MHB II (cation adjusted) on the 96-well plate. A logarithmic growing, overnight culture of the respective bacterial strain was used and adjusted to a McFarland corresponding to 1 × 10^8 cfu/ml. Afterwards the bacterial suspension was diluted to 1 ×10^6 cfu/ml and loaded on the 96-well polypropylene plates, resulting in a final bacterial concentration of 5 × 10^5 cfu/ml. After an incubation at 35 ± 1 °C for 18-20 hours (re-controlled after 24 hours) the MIC was determined as the lowest concentration without visible growth as described previously.11 For direct comparison of the tested substances, all results were calculated in mg/ml and mol/ml afterwards. […]
Resistance development study
(§2) Resistance development in S. aureus was determined by passaging bacteria in increasing amounts of vancomycin, FU002 or, as control, fusidic acid. In principle, tubes with twofold dilutions of the compounds in 1 ml Muller Hinton broth were inoculated 1:100 with bacterial suspension. The tubes were then incubated for 24 h at 37 °C under shaking. After each passage, the tube with the highest compound concentration showing bacterial growth was used to inoculate the tubes of the next passage (1:100). The tube with the lowest compound concentration showing no growth was defined as the passage MIC. Passaging was stopped after 8 passages.
For the validation of possible side effects provoked by the conjugates, the cytotoxic effect of the lead candidate FU002 on human cells was assessed in a colorimetric viability assay. Different human cell types were used including kidney and liver cell lines as well as freshly isolated peripheral blood cells. Cells were seeded into 96-well microtiter plates at 2 x 10^4 cells/well and cultured overnight (18-24 h) in a […]

Test [2] concerns Staphylococcus aureus NCTC 10442. The test is described as follows: Blocking experiments with Nα,Nε-diacetyl-Lys-D-Ala-D-Ala in microdilution. The format is cell-based. The following applies: at least 100-fold excess of Nα,Nε-Diacetyl-Lys-D-Ala-D-Ala, pre-incubation minimum 1 hour at room temperature. As for the experimental part:
as §1
Antimicrobial testing was performed according to CLSI and EUCAST guidelines in microdilution.8-10 Therefore, all tested substances as well as controls were dissolved in water in different concentrations and serially diluted in MHB II (cation adjusted) on the 96-well plate. A logarithmic growing, overnight culture of the respective bacterial strain was used and adjusted to a McFarland corresponding to 1 × 10^8 cfu/ml. Afterwards the bacterial suspension was diluted to 1 ×10^6 cfu/ml and loaded on the 96-well polypropylene plates, resulting in a final bacterial concentration of 5 × 10^5 cfu/ml. After an incubation at 35 ± 1 °C for 18-20 hours (re-controlled after 24 hours) the MIC was determined as the lowest concentration without visible growth as described previously.11 For direct comparison of the tested substances, all results were calculated in mg/ml and mol/ml afterwards.
as §2, with “For blocking experiments with NΑ,NΕ-DIACETYL-LYS-D-ALA-D-ALA the tested substances were incubated directly on the dilution plate with at least 100-fold excess of Nα,Nε-Diacetyl-Lys-D-Ala-D-Ala for a minimum of 1 hour at room temperature. Afterwards, the procedure was performed as described above. As further control substance, the glycopeptide antibiotic teicoplanin was evaluated. […] Resistance” for “Resistance”, “Passaging was stopped after 8 passages.” left out
For the validation of possible side effects provoked by the conjugates, the cytotoxic effect of the lead candidate FU002 on human cells was assessed in a colorimetric viability assay. […]

≈ marks a conversion by molar mass, not a printed value. Read-outs that look alike come from different tables or passages of the source.

For `CC(=O)O[C@H]1C[C@@]2(C)[C@@H](C[C@@H](O)[C@H]3[C@@]4(C)CC[C@@H](O)[C@@H](C)[C@@H]4CC[C@@]32C)/C1=C(\CCC=C(C)C)C(=O)O` [fusidic acid], the MIC in test [1] (read-out: MIC after 8 passages) worked out at 64 µg/mL (≈ 124 µM); in test [1] (read-out: initial MIC), 0.125 µg/mL (≈ 0.242 µM).
As for teicoplanin, the “effect of D-Ala-D-Ala binding motif on antibiotic activity” value in test [2] is “suppresses the antibiotic activity”.
